Measured values: patent US11299473B2, “Benzimidazole and indole compounds and uses thereof” (Incyte Corporation, priority 2018, dated 2022)

Molecular target: active HPK1 (SignalChem M23-11G) (Homo sapiens (Human), UniProt Q92918)
Assay: HPK1 Kinase Binding Assay
Conditions: LanthaScreen tracer 222 / Eu-Anti GST antibody, one hour incubation at 25° C.
Description: A stock solution of 1 mM test compound was prepared in DMSO. The compound plate was prepared by 3-fold and 11-point serial dilutions. 0.1 μL of the compound in DMSO was transferred from the compound plate to the white 384 well polystyrene plates. The assay buffer contained 50 mM HEPES, pH 7.5, 0.01% Tween-20, 5 mM MgCl2, 0.01% BSA, and 5 mM DTT. 5 μL of 4 nM active HPK1 (SignalChem M23-11G) prepared in the buffer was added to the plate. The enzyme concentration given was based on the given stock concentration reported by the vender. 5 μl of 18 nM tracer 222 (ThermoFisher PV6121) and 4 nM LanthaScreen Eu-Anti GST antibody (ThermoFisher PV5595) were added. After one hour incubation at 25° C., the plates were read on a PHERAstar FS plate reader (BMG Labtech). Ki values were determined.

Sequence of active HPK1 (SignalChem M23-11G) (Q92918 1-346 limits assumed): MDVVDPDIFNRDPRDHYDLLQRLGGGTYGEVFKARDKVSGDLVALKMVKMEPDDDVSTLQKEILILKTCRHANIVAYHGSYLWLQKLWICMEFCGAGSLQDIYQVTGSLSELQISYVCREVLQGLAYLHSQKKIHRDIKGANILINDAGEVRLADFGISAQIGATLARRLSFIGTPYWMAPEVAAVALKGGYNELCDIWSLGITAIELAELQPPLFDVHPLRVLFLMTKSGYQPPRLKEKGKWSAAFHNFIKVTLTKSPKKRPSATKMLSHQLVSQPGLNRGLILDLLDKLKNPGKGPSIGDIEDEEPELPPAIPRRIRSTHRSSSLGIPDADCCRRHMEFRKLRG

Row | Ki | SMILES
1 | ≤ 100 nM | COc1cccc(F)c1-c1nccc(C(=O)Nc2ccc3c(nc(C4CCOCC4)n3C)c2N2CCC[C@H]2CN)n1 [Example 20, (S)—N-(4-(2-(Aminomethyl)pyrrolidin-1-yl)-1-methyl-2-(tetrahydro-2H-pyran-4-yl)-1H-benzo[d]imidazol-5-yl)-2-(2-fluoro-6-methoxyphenyl)pyrimidine-4-carboxamide]
2 | ≤ 100 nM | COc1cccc(F)c1-c1nccc(C(=O)Nc2ccc3c(ncn3[C@@H]3CCOC3)c2N2CCC[C@H]2CN)n1 [Example 27, N-(4-((S)-2-(Aminomethyl)pyrrolidin-1-yl)-1-((R)-tetrahydrofuran-3-yl)-1H-benzo[d]imidazol-5-yl)-2-(2-fluoro-6-methoxyphenyl)pyrimidine-4-carboxamide]
3 | ≤ 100 nM | COc1cccc(F)c1-c1nccc(C(=O)Nc2ccc3c(nc(C)n3Cc3ccncc3)c2N2CC[C@H](N)C2)n1 [Example 29, (S)—N-(4-(3-Aminopyrrolidin-1-yl)-2-methyl-1-(pyridin-4-ylmethyl)-1H-benzo[d]imidazol-5-yl)-2-(2-fluoro-6-methoxyphenyl)pyrimidine-4-carboxamide]
4 | ≤ 100 nM | COc1cccc(F)c1-c1nccc(C(=O)Nc2ccc3c(nc(C)n3C)c2-c2ccccc2N)n1 [Example 31, N-(4-(2-Aminophenyl)-1,2-dimethyl-1H-benzo[d]imidazol-5-yl)-2-(2-fluoro-6-methoxyphenyl)pyrimidine-4-carboxamide]
5 | ≤ 100 nM | Cc1nc2c(N3CCC[C@H]3CN)c(NC(=O)c3ccnc(-c4c(F)cccc4F)n3)ccc2n1C [Example 32, (S)—N-(4-(2-(Aminomethyl)pyrrolidin-1-yl)-1,2-dimethyl-1H-benzo[d]imidazol-5-yl)-2-(2,6-difluorophenyl)pyrimidine-4-carboxamide]
6 | ≤ 100 nM | COc1cccc(F)c1-c1nccc(C(=O)Nc2ccc3c(ccn3Cc3cnc(C)s3)c2N2C[C@@H]3C[C@H]2CN3)n1 [Example 42, N-(4-((1S,4S)-2,5-Diazabicyclo[2.2.1]heptan-2-yl)-1-((2-methylthiazol-5-yl)methyl)-1H-indol-5-yl)-2-(2-fluoro-6-methoxyphenyl)pyrimidine-4-carboxamide]
7 | ≤ 100 nM | COc1cccc(F)c1-c1nccc(C(=O)Nc2ccc3c(ccn3CCN3CCOCC3)c2N2C[C@@H]3C[C@H]2CN3)n1 [Example 43, N-(4-((1S,4S)-2,5-Diazabicyclo[2.2.1]heptan-2-yl)-1-(2-morpholinoethyl)-1H-indol-5-yl)-2-(2-fluoro-6-methoxyphenyl)pyrimidine-4-carboxamide]
8 | ≤ 100 nM | COc1ccc(-n2ccc3c(N4C[C@@H](N)C[C@H]4CO)c(NC(=O)c4ccnc(-c5c(F)cccc5OC)n4)ccc32)c(F)c1 [Example 45, N-(4-((2S,4S)-4-Amino-2-(hydroxymethyl)pyrrolidin-1-yl)-1-(2-fluoro-4-methoxyphenyl)-1H-indol-5-yl)-2-(2-fluoro-6-methoxyphenyl)pyrimidine-4-carboxamide]

Continued, molecule first:

Row | SMILES | Ki
9 | COCCn1c(C)nc2c(N3CCC[C@H]3CN)c(NC(=O)c3ccnc(-c4c(F)cccc4OC)n3)ccc21 [Example 21, (S)—N-(4-(2-(Aminomethyl)pyrrolidin-1-yl)-1-(2-methoxyethyl)-2-methyl-1H-benzo[d]imidazol-5-yl)-2-(2-fluoro-6-methoxyphenyl)pyrimidine-4-carboxamide] | ≤ 100 nM
10 | COC[C@@H](C)n1c(C)nc2c(N3CCC[C@H]3CN)c(NC(=O)c3ccnc(-c4c(F)cccc4OC)n3)ccc21 [Example 22, N-(4-((S)-2-(Aminomethyl)pyrrolidin-1-yl)-1-((R)-1-methoxypropan-2-yl)-2-methyl-1H-benzo[d]imidazol-5-yl)-2-(2-fluoro-6-methoxyphenyl)pyrimidine-4-carboxamide] | ≤ 100 nM
11 | COc1cccc(F)c1-c1nccc(C(=O)Nc2ccc3c(nc(C)n3CC(C)(C)OC)c2N2CCC[C@H]2CN)n1 [Example 23, (S)—N-(4-(2-(Aminomethyl)pyrrolidin-1-yl)-1-(2-methoxy-2-methylpropyl)-2-methyl-1H-benzo[d]imidazol-5-yl)-2-(2-fluoro-6-methoxyphenyl)pyrimidine-4-carboxamide] | ≤ 100 nM
12 | COc1cccc(F)c1-c1nccc(C(=O)Nc2ccc3c(nc(C)n3[C@H]3CCOC3)c2N2CCC[C@H]2CN)n1 [Example 24, N-(4-((S)-2-(Aminomethyl)pyrrolidin-1-yl)-2-methyl-1-((S)-tetrahydrofuran-3-yl)-1H-benzo[d]imidazol-5-yl)-2-(2-fluoro-6-methoxyphenyl)pyrimidine-4-carboxamide] | ≤ 100 nM
13 | COCc1nc2c(N3CCC[C@H]3CN)c(NC(=O)c3ccnc(-c4c(F)cccc4OC)n3)ccc2n1C [Example 25, (S)—N-(4-(2-(Aminomethyl)pyrrolidin-1-yl)-2-(methoxymethyl)-1-methyl-1H-benzo[d]imidazol-5-yl)-2-(2-fluoro-6-methoxyphenyl)pyrimidine-4-carboxamide] | ≤ 100 nM
14 | COCCc1nc2c(N3CCC[C@H]3CN)c(NC(=O)c3ccnc(-c4c(F)cccc4OC)n3)ccc2n1C [Example 26, (S)—N-(4-(2-(Aminomethyl)pyrrolidin-1-yl)-2-(2-methoxyethyl)-1-methyl-1H-benzo[d]imidazol-5-yl)-2-(2-fluoro-6-methoxyphenyl)pyrimidine-4-carboxamide] | ≤ 100 nM
15 | COc1cccc(F)c1-c1nccc(C(=O)Nc2ccc3c(ncn3C)c2N2CCC[C@H]2CN)n1 [Example 28, (S)—N-(4-(2-(Aminomethyl)pyrrolidin-1-yl)-1-methyl-1H-benzo[d]imidazol-5-yl)-2-(2-fluoro-6-methoxyphenyl)pyrimidine-4-carboxamide] | ≤ 100 nM
16 | COc1cccc(F)c1-c1nccc(C(=O)Nc2ccc3c(nc(C)n3Cc3cnn(C)c3)c2N2CC[C@H](N)C2)n1 [Example 30, (S)—N-(4-(3-Aminopyrrolidin-1-yl)-2-methyl-1-((1-methyl-1H-pyrazol-4-yl)methyl)-1H-benzo[d]imidazol-5-yl)-2-(2-fluoro-6-methoxyphenyl)pyrimidine-4-carboxamide] | ≤ 100 nM
17 | Cc1cccc(F)c1-c1nccc(C(=O)Nc2ccc3c(nc(C)n3C)c2N2CCC[C@H]2CN)n1 [Example 33, (S)—N-(4-(2-(Aminomethyl)pyrrolidin-1-yl)-1,2-dimethyl-1H-benzo[d]imidazol-5-yl)-2-(2-fluoro-6-methylphenyl)pyrimidine-4-carboxamide] | ≤ 100 nM
18 | COc1cccc(F)c1-c1nc(C(=O)Nc2ccc3c(nc(C)n3C)c2N2CCC[C@H]2CN)ccc1F [Example 34, N-(4-((S)-2-(Aminomethyl)pyrrolidin-1-yl)-1,2-dimethyl-1H-benzo[d]imidazol-5-yl)-5-fluoro-6-(2-fluoro-6-methoxyphenyl)picolinamide] | ≤ 100 nM
19 | COc1cccc(F)c1-c1nccc(C(=O)Nc2ccc3c(ccn3C)c2N2CCC[C@@H]2CN)n1 [Example 35, (R)—N-(4-(2-(Aminomethyl)pyrrolidin-1-yl)-1-methyl-1H-indol-5-yl)-2-(2-fluoro-6-methoxyphenyl)pyrimidine-4-carboxamide] | ≤ 100 nM
20 | COc1cccc(F)c1-c1nccc(C(=O)Nc2ccc3c(ccn3C)c2N2C[C@@H](N)C[C@H]2CO)n1 [Example 36, N-(4-((2S,4S)-4-Amino-2-(hydroxymethyl)pyrrolidin-1-yl)-1-methyl-1H-indol-5-yl)-2-(2-fluoro-6-methoxyphenyl)pyrimidine-4-carboxamide] | ≤ 100 nM
21 | COc1cccc(F)c1-c1nccc(C(=O)Nc2ccc3c(ccn3C)c2N2CCNC[C@H]2C)n1 [Example 37, (R)-2-(2-Fluoro-6-methoxyphenyl)-N-(1-methyl-4-(2-methylpiperazin-1-yl)-1H-indol-5-yl)pyrimidine-4-carboxamide] | ≤ 100 nM
22 | COc1cccc(F)c1-c1nccc(C(=O)Nc2ccc3c(ccn3C)c2N2C[C@@H]3C[C@H]2CN3)n1 [Example 38, N-(4-((1S,4S)-2,5-Diazabicyclo[2.2.1]heptan-2-yl)-1-methyl-1H-indol-5-yl)-2-(2-fluoro-6-methoxyphenyl)pyrimidine-4-carboxamide] | ≤ 100 nM
23 | COc1cccc(F)c1-c1nccc(C(=O)Nc2ccc3c(ccn3Cc3ccncc3)c2N2C[C@@H]3C[C@H]2CN3)n1 [Example 39, N-(4-((1S,4S)-2,5-Diazabicyclo[2.2.1]heptan-2-yl)-1-(pyridin-4-ylmethyl)-1H-indol-5-yl)-2-(2-fluoro-6-methoxyphenyl)pyrimidine-4-carboxamide] | ≤ 100 nM
24 | COc1cccc(F)c1-c1nccc(C(=O)Nc2ccc3[nH]ccc3c2N2C[C@@H]3C[C@H]2CN3)n1 [Example 40, N-(4-((1S,4S)-2,5-Diazabicyclo[2.2.1]heptan-2-yl)-1H-indol-5-yl)-2-(2-fluoro-6-methoxyphenyl)pyrimidine-4-carboxamide] | ≤ 100 nM
25 | COc1cccc(F)c1-c1nccc(C(=O)Nc2ccc3c(ccn3CC3CCCCO3)c2N2C[C@@H]3C[C@H]2CN3)n1 (stereo partly drawn) [Example 41, N-(4-((1S,4S)-2,5-Diazabicyclo[2.2.1]heptan-2-yl)-1-((tetrahydro-2H-pyran-2-yl)methyl)-1H-indol-5-yl)-2-(2-fluoro-6-methoxyphenyl)pyrimidine-4-carboxamide] | ≤ 100 nM
26 | COc1cc(-n2ccc3c(N4C[C@@H]5C[C@H]4CN5)c(NC(=O)c4ccnc(-c5c(F)cccc5OC)n4)ccc32)ccn1 [Example 44, N-(4-((1S,4S)-2,5-Diazabicyclo[2.2.1]heptan-2-yl)-1-(2-methoxypyridin-4-yl)-1H-indol-5-yl)-2-(2-fluoro-6-methoxyphenyl)pyrimidine-4-carboxamide] | ≤ 100 nM
